Compound: CC(C)C[C@@H](C(=O)N[C@H](C(=O)OC1CCCC1)c1ccccc1)[C@H](O)C(=O)NO [Tosedostat] + C[C@]1(O)C[C@@H](c2nc(-c3ccc4ccc(-c5ccccc5)nc4c3)c3c(N)nccn32)C1 [Linsitinib] (partner 1 µM)
Assay: relative viability (nuclei count vs DMSO), 5 days (fraction); higher = more cells survive
Conditions: first compound 0.02 µM
In short: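 Five library-drug doses in √10 steps were combined with a fixed anchor-drug dose, or a single drug was given alone, by pin tool to lung cancer cell lines in 1536-well plates the day after seeding. Nuclei were stained and counted after 5 days. Relative viability is the nuclei count in treated wells over that in vehicle wells, taken as the median of duplicate plates.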

| Cell Line | relative viability |
| --- | --- |
| SK-LU-1 | 1.1 |
| NCI-H1703 | 0.56 |
| EBC-1 | 0.843 |
| NCI-H1792 | 0.553 |
| NCI-H2087 | 1 |
| NCI-H596 | 1.21 |
| NCI-H1355 | 0.717 |
| SW 1573 | 0.828 |
| LCLC-103H | 1.29 |
| NCI-H727 | 0.264 |
| NCI-H2405 | 0.883 |
| EMC-BAC-2 | 0.822 |
| NCI-H23 | 0.612 |
| Calu-6 | 0.979 |
| HCC-366 | 0.59 |
| NCI-H1755 | 0.942 |
| NCI-H838 | 1.09 |
| LK-2 | 0.883 |
| NCI-H2347 | 0.989 |
| SK-MES-1 | 1.2 |
| H3255 | 0.94 |
| IA-LM | 0.688 |
| A549 | 0.663 |
| NCI-H441 | 0.487 |
| NCI-H1395 | 0.993 |
| NCI-H1299 | 1.13 |
| NCI-H1793 | 0.678 |

Same assay, conditions: first compound 0.06325 µM

| Cell Line | relative viability |
| --- | --- |
| SK-LU-1 | 1.07 |
| NCI-H1703 | 0.628 |
| EBC-1 | 0.808 |
| NCI-H1792 | 0.578 |
| NCI-H2087 | 0.969 |
| NCI-H596 | 1.07 |
| NCI-H1355 | 0.839 |
| SW 1573 | 0.973 |
| LCLC-103H | 1.08 |
| NCI-H727 | 0.266 |
| NCI-H2405 | 0.963 |
| EMC-BAC-2 | 0.792 |
| NCI-H23 | 0.56 |
| Calu-6 | 0.942 |
| HCC-366 | 0.77 |
| NCI-H1755 | 1.02 |
| NCI-H838 | 0.982 |
| LK-2 | 0.465 |
| NCI-H2347 | 0.967 |
| SK-MES-1 | 1.05 |
| H3255 | 0.949 |
| IA-LM | 0.596 |
| A549 | 0.621 |
| NCI-H441 | 0.544 |
| NCI-H1395 | 0.944 |
| NCI-H1299 | 0.878 |
| NCI-H1793 | 0.984 |

Same assay, conditions: first compound 0.2 µM

| Cell Line | relative viability |
| --- | --- |
| SK-LU-1 | 0.9 |
| NCI-H1703 | 0.553 |
| EBC-1 | 0.977 |
| NCI-H1792 | 0.496 |
| NCI-H2087 | 0.951 |
| NCI-H596 | 1.22 |
| NCI-H1355 | 0.762 |
| SW 1573 | 0.826 |
| LCLC-103H | 1.06 |
| NCI-H727 | 0.272 |
| NCI-H2405 | 0.925 |
| EMC-BAC-2 | 0.794 |
| NCI-H23 | 0.548 |
| Calu-6 | 0.907 |
| HCC-366 | 0.721 |
| NCI-H1755 | 0.985 |
| NCI-H838 | 1.02 |
| LK-2 | 0.562 |
| NCI-H2347 | 0.992 |
| SK-MES-1 | 1.06 |
| H3255 | 0.917 |
| IA-LM | 0.463 |
| A549 | 0.562 |
| NCI-H441 | 0.473 |
| NCI-H1395 | 1.03 |
| NCI-H1299 | 0.984 |
| NCI-H1793 | 0.711 |

Same assay, conditions: first compound 0.6325 µM

| Cell Line | relative viability |
| --- | --- |
| SK-LU-1 | 0.855 |
| NCI-H1703 | 0.556 |
| EBC-1 | 0.581 |
| NCI-H1792 | 0.548 |
| NCI-H2087 | 1 |
| NCI-H596 | 1.05 |
| NCI-H1355 | 0.701 |
| SW 1573 | 0.841 |
| LCLC-103H | 1.18 |
| NCI-H727 | 0.168 |
| NCI-H2405 | 0.965 |
| EMC-BAC-2 | 0.837 |
| NCI-H23 | 0.474 |
| Calu-6 | 0.848 |
| HCC-366 | 0.457 |
| NCI-H1755 | 0.965 |
| NCI-H838 | 1.08 |
| LK-2 | 0.743 |
| NCI-H2347 | 0.949 |
| SK-MES-1 | 1.01 |
| H3255 | 0.984 |
| IA-LM | 0.445 |
| A549 | 0.532 |
| NCI-H441 | 0.402 |
| NCI-H1395 | 0.821 |
| NCI-H1299 | 0.878 |
| NCI-H1793 | 0.641 |

Same assay, conditions: first compound 2 µM

| Cell Line | relative viability |
| --- | --- |
| SK-LU-1 | 0.906 |
| NCI-H1703 | 0.473 |
| EBC-1 | 0.585 |
| NCI-H1792 | 0.636 |
| NCI-H2087 | 0.886 |
| NCI-H596 | 1.06 |
| NCI-H1355 | 0.726 |
| SW 1573 | 0.551 |
| LCLC-103H | 1.36 |
| NCI-H727 | 0.322 |
| NCI-H2405 | 0.862 |
| EMC-BAC-2 | 0.82 |
| NCI-H23 | 0.416 |
| Calu-6 | 0.647 |
| HCC-366 | 0.602 |
| NCI-H1755 | 0.939 |
| NCI-H838 | 1.31 |
| LK-2 | 0.913 |
| NCI-H2347 | 0.975 |
| SK-MES-1 | 0.983 |
| H3255 | 0.988 |
| IA-LM | 0.474 |

Source: the supplement of paper PMC10307832
